In patent US12195427B2, “MASP-2 inhibitors and methods of use” (priority 2018, dated 2025):

Biological target: MASP-2 CCP2-SP (Homo sapiens (Human), UniProt O00187)
Assay: MASP-2 co-crystallization, X-ray crystallography and structure analysis (H-bonds, van der Waals contacts);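 for Ligand-pharmacophore element distance, pharmacophore element C2: distance from averaged pharmacophore element to bound ligand; missing value means element absent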;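 for Ligand-pharmacophore element distance, pharmacophore element C3: distance from averaged pharmacophore element to bound ligand; missing value means element absent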;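 for Ligand-pharmacophore element distance, pharmacophore element C4: distance from averaged pharmacophore element to bound ligand; missing value means element absent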;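 for Ligand-pharmacophore element distance, pharmacophore element C5: distance from averaged pharmacophore element to bound ligand; missing value means element absent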
Parameters: van der Waals contact distance, MASP-2 HIS 483 atom CD2 / van der Waals contact distance, MASP-2 HIS 483 atom NE2 / van der Waals contact distance, SER 654 C to compound atom / van der Waals contact distance, SER 654 O to compound atom / van der Waals contact distance, TRP 655 C to compound atom / van der Waals contact distance, MASP-2 GLY 528 atom CA / van der Waals contact distance TRP 655 atom CZ3 / van der Waals contact distance TRP 655 atom N / van der Waals contact distance TRP 655 atom CE3 / van der Waals contact distance GLY 656 atom C / van der Waals contact distance GLY 656 atom CA / van der Waals contact distance GLY 656 atom O / van der Waals contact distance, MASP-2 TYR 607 atom CD1 / van der Waals contact distance, MASP-2 PRO 606 atom O / d(C3,CA1) / d(CA1,N1)2 / d(H4,O1) / d(H4,O2) / d(O1,O2) / d(CA1,O2) / d(CA6,O1) / d(CA6,O2) / d(CA1,C5) / d(O2,H3) / d(N2,C2) / d(CA5,N2) / d(N2,C4) / d(N2,C6) / d(N2,CA3) / d(N2,O3) / d(O4,H2): unit not given beside the values
Details: for H-bond distance to MASP-2 SER 657 atom O: SER 657 O; for Ligand-pharmacophore element distance, pharmacophore element C2 / Ligand-pharmacophore element distance, pharmacophore element C3 / Ligand-pharmacophore element distance, pharmacophore element C4 / Ligand-pharmacophore element distance, pharmacophore element C5 / Ligand-pharmacophore element distance, pharmacophore element C6 / Ligand-pharmacophore element distance, pharmacophore element C7 / Ligand-pharmacophore element distance, pharmacophore element CA1 / Ligand-pharmacophore element distance, pharmacophore element CA2 / Ligand-pharmacophore element distance, pharmacophore element CA3 / Ligand-pharmacophore element distance, pharmacophore element CA4 / Ligand-pharmacophore element distance, pharmacophore element CA5 / Ligand-pharmacophore element distance, pharmacophore element CA6: Table A4-1; for d(N2,C2) / d(N2,CA2) / d(O2,H3) / d(O2,N2): Table A5-2 pharmacophore distance, S3/S4 region; for a(O1, O2, H3) / a(O1, O2, N2) / a(O2, N2, C2) / a(O2, N2, CA2): Table A6-2 pharmacophore angle; for Pharmacophore torsion angle a(O1, O2, N2, CA2): Table A7-2; for van der Waals contact distance SER 657 atom C: Table A2-14, MASP-2 SER 657 C, columns c12-c13 (inferred)
Procedure, shortened: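 Human MASP-2 CCP2-SP, untagged or 6His-tagged, was expressed in E. coli and crystallized. Crystals were soaked with inhibitor in crystallization solution, flash-cooled in liquid nitrogen, and diffracted with synchrotron X-rays (wavelength 1.0). Structures were solved by molecular replacement from 1Q3X and partially refined.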

[1] = Table A2-9, ARG 630, AA atoms CG, CZ
[2] = Table A5-1 pharmacophore: distance between elements, S2/S1 region
[3] = Table A7-1, between pharmacophore elements of the bound compound
[4] = between pharmacophore elements of the bound compound

MASP-2 CCP2-SP, sequence (O00187 445-686): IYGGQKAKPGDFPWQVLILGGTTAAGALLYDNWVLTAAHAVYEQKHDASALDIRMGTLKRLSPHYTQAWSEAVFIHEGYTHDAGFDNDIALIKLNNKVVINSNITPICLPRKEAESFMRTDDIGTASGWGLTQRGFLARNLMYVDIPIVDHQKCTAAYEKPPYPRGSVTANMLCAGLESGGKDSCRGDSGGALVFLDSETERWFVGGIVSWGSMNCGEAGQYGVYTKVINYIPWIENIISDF
MASP-2 CCP2-SP, sequence (O00187 364-432 partner): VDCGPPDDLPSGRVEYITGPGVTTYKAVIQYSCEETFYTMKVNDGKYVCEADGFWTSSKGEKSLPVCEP

Cc1nc(N)ccc1CNC(=O)[C@H](C)NC(=O)[C@H]1C[C@@H](Cc2ccccc2)CCN1 [compound 1353, (2R,4S)—N—((S)-1-(((6-Amino-2-methylpyridin-3-yl)methyl)amino)-1-oxopropan-2-yl)-4-benzylpiperidine-2-carboxamide]
H-bond distance to MASP-2 ASP 627 atom OD2 (Table A1 (H-Bonds), ASP 627 OD2): 3.17
H-bond distance to MASP-2 GLY 656 atom N (Table A1 (H-Bonds), GLY 656 N): 3.15
H-bond distance to MASP-2 GLY 656 atom O (Table A1 (H-Bonds), GLY 656 O): 2.85
H-bond distance to MASP-2 SER 654 atom O (Table A1 (H-Bonds), SER 654 O): 3
H-bond distance to MASP-2 SER 657 atom O (Table A1 (H-Bonds)): 2.91
van der Waals contact distance, MASP-2 HIS 483 atom CD2 (Table A2-1): 3.77
van der Waals contact distance, MASP-2 HIS 483 atom NE2 (Table A2-1): 3.67
van der Waals contact distance, MASP-2 PHE 529 atom CD2 (Table A2-3): 3.68
van der Waals contact distance, MASP-2 TYR 607 atom CD1 (Table A2-4): 3.75
van der Waals contact distance, MASP-2 amino acid atom to compound atom (Table A2-7: SER 628 (CB, O, OG)): 3.66
van der Waals contact distance, MASP-2 amino acid atom to compound atom [1]: 3.74
van der Waals contact distance, VAL 653 CG1 to compound atom (Table A2-11): 3.3
van der Waals contact distance, TRP 655 CA to compound atom (Table A2-12): 3.3
Ligand-pharmacophore element distance, pharmacophore element C2: 0.58
Ligand-pharmacophore element distance, pharmacophore element C3: 0.13
Ligand-pharmacophore element distance, pharmacophore element C4: 0
Ligand-pharmacophore element distance, pharmacophore element C5: 0
Ligand-pharmacophore element distance, pharmacophore element C6: 0
Ligand-pharmacophore element distance, pharmacophore element C7: 0
Ligand-pharmacophore element distance, pharmacophore element CA1: 0.61
Ligand-pharmacophore element distance, pharmacophore element CA2: 0.5
Ligand-pharmacophore element distance, pharmacophore element CA3: 0
Ligand-pharmacophore element distance, pharmacophore element CA4: 0
Ligand-pharmacophore element distance, pharmacophore element CA5: 0
Ligand-pharmacophore element distance, pharmacophore element CA6: 0
d(C3,CA1) [2]: 2.85
d(CA1,N1)2 [2]: 1.36
d(CA1,O1) [2]: 4.38
d(CA1,O2) [2]: 3.79
d(H4,O1) [2]: 4.38
d(H4,O2) [2]: 3.72
d(O1,O2) [2]: 3.27
d(N2,C2): 1.45
d(N2,CA2): 6.50
d(O2,H3): 4.10
d(O2,N2): 2.69
a(C3, CA1, O1) (Table A6-1 pharmacophore angle): 149.99
a(CA1, O1, O2) (Table A6-1 pharmacophore angle): 103.61
a(O1, O2, H4) (Table A6-1 pharmacophore angle): 133.22
a(N1, CA1, O1) b) (Table A6-1 pharmacophore angle, Methyl-amino-pyridine compounds): 173.73
a(O1, O2, H3): 146.74
a(O1, O2, N2): 137.66
a(O2, N2, C2): 130.69
a(O2, N2, CA2): 157.19
Pharmacophore torsion angle a(C3, CA1, O1, H4) [3]: 23.38
Pharmacophore torsion angle a(H4, O1, O2, H3) [3]: 51.34
Pharmacophore torsion angle a(H4, O1, O2, N2) [3]: 136.30
Pharmacophore torsion angle a(N1, CA1, O1, H4) [3]: 3.14
Pharmacophore torsion angle a(O1, H4, O2, CA1) [3]: −84.72
Pharmacophore torsion angle a(O1, O2, N2, C2) [3]: 126.15
Pharmacophore torsion angle a(O1, O2, N2, CA2) [4]: 120.30

C[C@H](NC(=O)[C@H]1C[C@@H](c2ccccc2)CCN1)C(=O)NCc1cc(Cl)ccc1O.Cl [1078_5]
Ligand-pharmacophore element distance, pharmacophore element C2: 0.71
Ligand-pharmacophore element distance, pharmacophore element C3: 0
Ligand-pharmacophore element distance, pharmacophore element C4: 0
Ligand-pharmacophore element distance, pharmacophore element C5: 0.42
Ligand-pharmacophore element distance, pharmacophore element C6: 0
Ligand-pharmacophore element distance, pharmacophore element C7: 0
Ligand-pharmacophore element distance, pharmacophore element CA1: 1.76
Ligand-pharmacophore element distance, pharmacophore element CA2: 0.6
Ligand-pharmacophore element distance, pharmacophore element CA3: 0
Ligand-pharmacophore element distance, pharmacophore element CA4: 0
Ligand-pharmacophore element distance, pharmacophore element CA5: 0
Ligand-pharmacophore element distance, pharmacophore element CA6: 0
d(CA1,C5) [2]: 3.12
d(CA1,O1) [2]: 4.48
d(CA1,O2) [2]: 4.88
d(CA1,O4) [2]: 2.72
d(H4,O1) [2]: 2.40
d(H4,O2) [2]: 2.46
d(O1,O2) [2]: 3.41
d(O4,H2) [2]: 0.98
d(N2,C2): 1.45
d(N2,CA2): 5.65
d(O2,H3): 3.24
d(O2,N2): 2.95
a(C5, CA1, O1) (Table A6-1 pharmacophore angle): 164.79
a(CA1, O1, O2) (Table A6-1 pharmacophore angle): 117.54
a(CA1, O4, H2) (Table A6-1 pharmacophore angle): 131.80
a(O1, CA1, O4) (Table A6-1 pharmacophore angle): 55.67
a(O1, O2, H4) (Table A6-1 pharmacophore angle): 90.82
a(O1, O2, H3): 138.56
a(O1, O2, N2): 141.15
a(O2, N2, C2): 114.27
a(O2, N2, CA2): 151.79
Pharmacophore torsion angle a(C5, CA1, O1, H4) [3]: 21.83
Pharmacophore torsion angle a(H4, O1, O2, H3) [3]: −119.72
Pharmacophore torsion angle a(H4, O1, O2, N2) [3]: −115.76
Pharmacophore torsion angle a(O1, H4, O2, CA1) [3]: −52.04
Pharmacophore torsion angle a(O1, O2, N2, C2) [3]: 148.01
Pharmacophore torsion angle a(O1, O2, N2, CA2) [4]: 149.21

N=C(N)c1ccc(CNC(=O)[C@@H]2CCN2C(=O)[C@H](NCC(=O)O)C2CCCCC2)cc1 [melagatran, reference compound]
H-bond distance to MASP-2 SER 628 atom OG (Table A1 (H-Bonds), SER 628 OG): 2.75
H-bond distance to MASP-2 SER 657 atom O (Table A1 (H-Bonds)): 2.84
van der Waals contact distance, MASP-2 TYR 607 atom CD2 (Table A2-4): 3.72
van der Waals contact distance, MASP-2 amino acid atom to compound atom (Table A2-5: TYR 607 (CE1, CE2, OH), PRO 608 (CD, CG), SER 611 (CA)): 3.67
van der Waals contact distance, MASP-2 amino acid atom to compound atom [1]: 3.8
van der Waals contact distance GLY 656 atom C (Table A2-13, MASP-2 GLY 656 C): 3.42
van der Waals contact distance TRP 655 atom CE3 (Table A2-13, MASP-2 TRP 655 CE3, compound atom in line below): 3.75
van der Waals contact distance TRP 655 atom O (Table A2-13, MASP-2 TRP 655 O): 3.39
van der Waals contact distance SER 657 atom C: 3.77
van der Waals contact distance SER 657 atom C (listed as Melagatran): 3.68
